Organism: Rattus norvegicus
Experiment: DrugMatrix - Regimen: Daily Repeat
Assay type: toxicity, organism-based, Sprague-Dawley
Set-up: regimen Daily Repeat, gender Male, age 6-8 weeks
Conditions: in vivo, po, route oral GAVAGE, vehicle .5 % CMC; for BASOPHIL / EOSINOPHIL / ERYTHROCYTE COUNT / HEMATOCRIT / HEMOGLOBIN / LEUKOCYTE COUNT / LYMPHOCYTE / MEAN CORPUSCULAR HEMOGLOBIN / MEAN CORPUSCULAR HEMOGLOBIN CONCENTRATION / MEAN CORPUSCULAR VOLUME / MONOCYTE / NEUTROPHIL / PLATELET COUNT: tissue Blood; for ALANINE AMINOTRANSFERASE / ALBUMIN / ALKALINE PHOSPHATASE / ASPARTATE AMINOTRANSFERASE / BLOOD UREA NITROGEN / CHLORIDE / CHOLESTEROL / CREATINE PHOSPHOKINASE / CREATININE / GLUCOSE / PHOSPHORUS / POTASSIUM / SODIUM / TOTAL BILIRUBIN / TOTAL PROTEIN: tissue Plasma
[1] = 0 mg/kg, 72 h, dose level Control, time 3 day
[2] = 0 mg/kg, 120 h, dose level Control, time 5 day
[3] = 41 mg/kg, 72 h, dose level High, time 3 day
[4] = 41 mg/kg, 120 h, dose level High, time 5 day
[5] = […], 72 h, dose 4.1 mg/Kg, dose level Low, time 3 day
[6] = […], 120 h, dose 4.1 mg/Kg, dose level Low, time 5 day

## O=C1c2ccccc2C(=O)C1c1ccccc1 [PHENINDIONE]
[1]
  BASOPHIL: 0.68%
  EOSINOPHIL: 0.46%
  ERYTHROCYTE COUNT: 7.15 x10E6/uL
  HEMATOCRIT: 45.44%
  HEMOGLOBIN: 14.1 G/DL
  LEUKOCYTE COUNT: 9.78 x10E3/uL
  LYMPHOCYTE: 84.44%
  MEAN CORPUSCULAR HEMOGLOBIN: 19.72 pg
  MEAN CORPUSCULAR HEMOGLOBIN CONCENTRATION: 31 G/DL
  MEAN CORPUSCULAR VOLUME: 63.66 fL
  MONOCYTE: 2.14%
  NEUTROPHIL: 11.16%
  PLATELET COUNT: 1378.2 x10E3/uL
  ALANINE AMINOTRANSFERASE: 42.33 u/L
  ALBUMIN: 3.8 G/DL
  ALKALINE PHOSPHATASE: 388.17 u/L
  ASPARTATE AMINOTRANSFERASE: 68 u/L
  BLOOD UREA NITROGEN: 16.17 mg/dL
  CHLORIDE: 96.67 MEQ/L
  CHOLESTEROL: 71 mg/dL
  CREATINE PHOSPHOKINASE: 156.17 u/L
  CREATININE: 0.57 mg/dL
  GLUCOSE: 193.67 mg/dL
  PHOSPHORUS: 11.43 mg/dL
  POTASSIUM: 7 MEQ/L
  SODIUM: 140.33 MEQ/L
  TOTAL BILIRUBIN: 0.48 mg/dL
  TOTAL PROTEIN: 6.8 G/DL
[2]
  BASOPHIL: 1.47%
  EOSINOPHIL: 1%
  ERYTHROCYTE COUNT: 7.12 x10E6/uL
  HEMATOCRIT: 45.47%
  HEMOGLOBIN: 14.1 G/DL
  LEUKOCYTE COUNT: 11.38 x10E3/uL
  LYMPHOCYTE: 82.57%
  MEAN CORPUSCULAR HEMOGLOBIN: 19.82 pg
  MEAN CORPUSCULAR HEMOGLOBIN CONCENTRATION: 31.02 G/DL
  MEAN CORPUSCULAR VOLUME: 63.88 fL
  MONOCYTE: 2.2%
  NEUTROPHIL: 11.97%
  PLATELET COUNT: 1267 x10E3/uL
  ALANINE AMINOTRANSFERASE: 38 u/L
  ALBUMIN: 3.72 G/DL
  ALKALINE PHOSPHATASE: 391 u/L
  ASPARTATE AMINOTRANSFERASE: 65.83 u/L
  BLOOD UREA NITROGEN: 14.17 mg/dL
  CHLORIDE: 107.67 MEQ/L
  CHOLESTEROL: 61 mg/dL
  CREATINE PHOSPHOKINASE: 148.33 u/L
  CREATININE: 0.57 mg/dL
  GLUCOSE: 177.17 mg/dL
  PHOSPHORUS: 12.07 mg/dL
  POTASSIUM: 7.2 MEQ/L
  SODIUM: 151.5 MEQ/L
  TOTAL BILIRUBIN: 0.58 mg/dL
  TOTAL PROTEIN: 6.72 G/DL
[3]
  BASOPHIL: 0.3%
  EOSINOPHIL: 0.33%
  ERYTHROCYTE COUNT: 7.21 x10E6/uL
  HEMATOCRIT: 45.77%
  HEMOGLOBIN: 14.17 G/DL
  LEUKOCYTE COUNT: 11.97 x10E3/uL
  LYMPHOCYTE: 84.4%
  MEAN CORPUSCULAR HEMOGLOBIN: 19.77 pg
  MEAN CORPUSCULAR HEMOGLOBIN CONCENTRATION: 30.97 G/DL
  MEAN CORPUSCULAR VOLUME: 63.73 fL
  MONOCYTE: 2.13%
  NEUTROPHIL: 11.97%
  PLATELET COUNT: 1382.67 x10E3/uL
  ALANINE AMINOTRANSFERASE: 31.33 u/L
  ALBUMIN: 3.67 G/DL
  ALKALINE PHOSPHATASE: 276 u/L
  ASPARTATE AMINOTRANSFERASE: 57 u/L
  BLOOD UREA NITROGEN: 11 mg/dL
  CHLORIDE: 96 MEQ/L
  CHOLESTEROL: 75.33 mg/dL
  CREATINE PHOSPHOKINASE: 160 u/L
  CREATININE: 0.47 mg/dL
  GLUCOSE: 189.67 mg/dL
  PHOSPHORUS: 13.23 mg/dL
  POTASSIUM: 6.77 MEQ/L
  SODIUM: 140.67 MEQ/L
  TOTAL BILIRUBIN: 0.27 mg/dL
  TOTAL PROTEIN: 6.63 G/DL
[4]
  BASOPHIL: 1.47%
  EOSINOPHIL: 0.3%
  ERYTHROCYTE COUNT: 7.12 x10E6/uL
  HEMATOCRIT: 45.4%
  HEMOGLOBIN: 14.17 G/DL
  LEUKOCYTE COUNT: 14.99 x10E3/uL
  LYMPHOCYTE: 85.6%
  MEAN CORPUSCULAR HEMOGLOBIN: 19.93 pg
  MEAN CORPUSCULAR HEMOGLOBIN CONCENTRATION: 31.23 G/DL
  MEAN CORPUSCULAR VOLUME: 63.83 fL
  MONOCYTE: 2.43%
  NEUTROPHIL: 9.5%
  PLATELET COUNT: 1502.67 x10E3/uL
  ALANINE AMINOTRANSFERASE: 34 u/L
  ALBUMIN: 3.53 G/DL
  ALKALINE PHOSPHATASE: 292 u/L
  ASPARTATE AMINOTRANSFERASE: 57 u/L
  BLOOD UREA NITROGEN: 10.67 mg/dL
  CHLORIDE: 103.67 MEQ/L
  CHOLESTEROL: 83.33 mg/dL
  CREATINE PHOSPHOKINASE: 132.67 u/L
  CREATININE: 0.47 mg/dL
  GLUCOSE: 192.67 mg/dL
  PHOSPHORUS: 12.77 mg/dL
  POTASSIUM: 7.37 MEQ/L
  SODIUM: 150 MEQ/L
  TOTAL BILIRUBIN: 0.37 mg/dL
  TOTAL PROTEIN: 6.43 G/DL
[5]
  BASOPHIL: 0.47%
  EOSINOPHIL: 0.27%
  ERYTHROCYTE COUNT: 7.09 x10E6/uL
  HEMATOCRIT: 45.17%
  HEMOGLOBIN: 13.97 G/DL
  LEUKOCYTE COUNT: 12.61 x10E3/uL
  LYMPHOCYTE: 82.37%
  MEAN CORPUSCULAR HEMOGLOBIN: 19.7 pg
  MEAN CORPUSCULAR HEMOGLOBIN CONCENTRATION: 30.9 G/DL
  MEAN CORPUSCULAR VOLUME: 63.73 fL
  MONOCYTE: 2.5%
  NEUTROPHIL: 13.5%
  PLATELET COUNT: 1416.33 x10E3/uL
  ALANINE AMINOTRANSFERASE: 33 u/L
  ALBUMIN: 3.63 G/DL
  ALKALINE PHOSPHATASE: 396.33 u/L
  ASPARTATE AMINOTRANSFERASE: 56 u/L
  BLOOD UREA NITROGEN: 11.33 mg/dL
  CHLORIDE: 96 MEQ/L
  CHOLESTEROL: 74.67 mg/dL
  CREATINE PHOSPHOKINASE: 136.67 u/L
  CREATININE: 0.47 mg/dL
  GLUCOSE: 209.33 mg/dL
  PHOSPHORUS: 12.83 mg/dL
  POTASSIUM: 6.4 MEQ/L
  SODIUM: 140.33 MEQ/L
  TOTAL BILIRUBIN: 0.27 mg/dL
  TOTAL PROTEIN: 6.5 G/DL
[6]
  BASOPHIL: 1.43%
  EOSINOPHIL: 0.2%
  ERYTHROCYTE COUNT: 6.9 x10E6/uL
  HEMATOCRIT: 44.03%
  HEMOGLOBIN: 13.87 G/DL
  LEUKOCYTE COUNT: 10.25 x10E3/uL
  LYMPHOCYTE: 84.9%
  MEAN CORPUSCULAR HEMOGLOBIN: 20.03 pg
  MEAN CORPUSCULAR HEMOGLOBIN CONCENTRATION: 31.4 G/DL
  MEAN CORPUSCULAR VOLUME: 63.83 fL
  MONOCYTE: 2.17%
  NEUTROPHIL: 10.6%
  PLATELET COUNT: 1408.33 x10E3/uL
  ALANINE AMINOTRANSFERASE: 37.33 u/L
  ALBUMIN: 3.6 G/DL
  ALKALINE PHOSPHATASE: 340.67 u/L
  ASPARTATE AMINOTRANSFERASE: 58 u/L
  BLOOD UREA NITROGEN: 9 mg/dL
  CHLORIDE: 103.33 MEQ/L
  CHOLESTEROL: 58 mg/dL
  CREATINE PHOSPHOKINASE: 132.33 u/L
  CREATININE: 0.43 mg/dL
  GLUCOSE: 190.33 mg/dL
  PHOSPHORUS: 13.17 mg/dL
  POTASSIUM: 7.2 MEQ/L
  SODIUM: 150.33 MEQ/L
  TOTAL BILIRUBIN: 0.27 mg/dL
